One series has as its system human platelets. The experiment in a line: TRAP stimulated human platelet aggregation. The class given is cell-based. The text has this:
Schering-Plough Corp. is developing SCH 530348, which is a selective inhibitor of the primary thrombin receptor, PAR-1 (protease-activated receptor-1), on human platelets. […] Current clinical development of SCH 530348 is directed toward approval of a therapy that is adjunctive to current standard of care, e.g., the ADP antagonist clopidogrel and aspirin. However, an avoidance of bleeding risk by administration of an appropriate thrombin receptor antagonist as a monotherapy may have potential advantages over some of the currently approved antiplatelet drugs such as Plavix® (clopidogrel) and Ticlid® (ticolpidine) in certain situations such as PCI. Furthermore, the standard of care may evolve to encompass other ADP antagonists such as prasugrel. The treatment of PCI patients by administration of a thrombin receptor antagonist as adjunctive therapy to the standard of care encompasses future standards of care such as prasugrel, or any other ADP antagonist, and aspirin.

The subject of series [1] is platelets. Put plainly: Arachidonic acid (AA)-induced platelet aggregation. The note with it: loading and maintenance doses. The class given is in vivo, humans. On the procedure: (§1) A pharmacodynamic substudy incorporating light aggregometry was performed under stringent physiologic conditions and read by a central core laboratory. […] The term “therpeutically effective amount of a thrombin receptor antagonist” will be understood to mean that quantity of the thrombin receptor antagonist sufficient to achieve at least 80% inhibition of TRAP mediated platelet aggregation.
(§2) Similarly, there is no effect on arachidonic acid (“AA”) -induced platelet aggregation (see FIGS. 16 and 17) or collagen-induced platelet aggregation (see FIGS. 18-21).

Series [2] can be described thus: Pharmacokinetics: blood concentration of SCH 530348. The series is classed as in vivo, humans. On the procedure: As the dose of SCH 530348 increased, the onset of platelet aggregation occurred at earlier sampling time points and maximum observed inhibition of aggregation increased, with 20 and 40 mg causing consistent maximum (>80%) inhibition of TRAP-induced platelet aggregation at 1-2 hours post dose. […] The duration of these pharmacodynamic effects is consistent with the drug's long elimination half-life.
This level of platelet inhibition is believed to be sufficient to lower the risks of adverse clinical events associated with PCI. […] The term “risk-abated PCI procedures” will be understood to mean those PCI procedures that are undertaken after the patient has achieved at least 80% platelet inhibition. This represents a marked improvement over the 4-6 hour period before risk-abated PCI can be performed using the current standard of care, i.e., clopidogrel and aspirin without a thrombin receptor antagonist.

The subject of series [3] is platelets. The experiment in a line: Collagen-induced platelet aggregation. The note with it: collagen 5 and 50 μg/ml; loading and maintenance doses. The class given is in vivo, humans. On the procedure: as §1, §2
The nature of series [4]: Monkey bleeding liability study: surgical blood loss from femoral incision site. The series is classed as in vivo, cynomolgus monkeys. The note with it: anesthetized monkeys, single oral dose (SCH 530348 1 mg/kg, ASA 10 mg/kg, clopidogrel 2 mg/kg), mean ± SEM. On the procedure: Any novel antiplatelet agent should optimally avoid incremental bleeding risk relative to the current standard of care. The bleeding risk of SCH 530348 was evaluated in anesthetized cynomoigus monkeys in which SCH 530348 was administered alone and along with aspirin and clopidogrel. Bleeding assessment was conducted following administration of single doses of SCH 530348 (1 mg/kg) and/or aspirin (10 mg/kg, ASA) and clopidogrel (2 mg/kg). Four groups of monkeys were dosed orally with either vehicle (the medium used to dissolve the drug, 0.4% methylcellulose) or drug (n=5-6/group): Group I: vehicle, Group II: SCH 530348 (1 mg/kg), Group III ASA (10 mg/kg) plus clopidogrel (2 mg/kg) and Group IV: combination of SCH 530348, ASA plus clopidogrel. Doses of various drugs used inhibited their respective platelet pathways by >90% as assessed by ex-vivo platelet aggregation in whole blood. Two hours after dosing, animals were anesthetized and bleeding risk was assessed by forearm template bleeding time and surgical blood loss from a femoral incision site.
Surgical blood loss was assessed as follows. The femoral artery and femoral vein on the hind leg of the anesthetized monkey were surgically isolated by cutting with a scalpel blade. […] A small sample was read in a spectrophotometer (at […]) and the volume of blood loss was derived from a standard curve. […]

In series [5] the test system is platelets. Put plainly: Ex-vivo platelet aggregation in whole blood. Particulars: oral dose of 0.1 mg/kg. More on the design: species or system cynomolgus monkeys.

SMILES strings stand for the structures.

In the series on human platelets, `CCOC(=O)N[C@@H]1CC[C@@H]2[C@@H](C1)C[C@H]1C(=O)O[C@H](C)[C@H]1[C@H]2/C=C/c1ccc(-c2cccc(F)c2)cn1.O=S(=O)(O)O` [SCH 530348, ethyl [(1R,3aR,4aR,6R,8aR,9S,9aS)-9-[(E)-2-[5-(3-fluorophenyl)-2-pyridinyl]ethenyl]-dodecahydro-1-methyl-3-oxonaphtho[2,3-c]furan-6-yl] carbamate bisulfate] registered an IC50 of 15 nM. Besides, the “Effect on arachidonic acid (AA)-induced platelet aggregation” value with platelets [1] was “no effect”. Further, the “Time to peak blood concentration levels” value in series [2] (40 mg loading dose) was “in as little as one hour”. Further, in series [2] (in vivo), the Elimination half-life entry is listed as “long”. In the series on platelets [3], the “Effect on collagen-induced platelet aggregation” value is “no effect”. Further, the Surgical blood loss in series [4] was 0.18 mL/h; in series [4] (listed as Group II), 0.18 ± 0.03 mL/h. Moreover, in the series on platelets [5], the “Inhibition of TRAP-driven platelet aggregation (ex-vivo)” value is 100%.

Broadly, the IC50 is the midpoint of a concentration-inhibition curve.

Values taken from US20080234236A1, “REDUCTION OF ADVERSE EVENTS AFTER PERCUTANEOUS INTERVENTION BY USE OF A THROMBIN RECEPTOR ANTAGONIST” (priority 2007, published 2008).
